According to paper PMC5494547 (2015):

Key:
[1] = test system: MBA1 (DNA, aptamer) TACACTGGGGAGTATTGCGGAGGAAGTGTA; assay: circular dichroism; details: 1 µM MBA1, 50 mM ATP; quadruplex bands at 265 and 295 nm
[2] = test system: MBA3 (DNA, aptamer) GCGCGCGGGGAGTATTGCGGAGGAGCGCGC; assay: circular dichroism; details: CD unchanged by PPFP-Br; tighter folded G-quadruplex than ATP/MBA1

binding [1]: yes
binding [2]: yes
SMILES: Nc1ncnc2c1ncn2[C@@H]1O[C@H](COP(=O)(O)OP(=O)(O)OP(=O)(O)O)[C@@H](O)[C@H]1O
